From patent publication US20240360116A1, “BICYCLIC DERIVATIVES” (ELANCO TIERGESUNDHEIT AG, priority 2020, published 2024)
Where “and” joins values, the source holds several entries; their conditions need not be identical. Equal entries are not always repeated.

How the values were obtained:
[1] = system: Adult Nippostrongylus brasiliensis; experiment: In Vitro Assay 5: Nippostrongylus brasiliensis (NIPOBR), acetylcholine esterase readout; details: adult worms, tested at 10, 1 and 0.1 ppm, vs negative control
Experimental: Adult Nippostrongylus brasiliensis were washed with saline buffer containing 100 U/ml penicillin, 0.1 mg/ml streptomycin and 2.5 μg/ml amphotericin B. Test compounds were dissolved in DMSO and worms were incubated in medium in a final concentration of 10 μg/ml (10 ppm), 1 μg/ml (1 ppm) and 0.1 μg/ml (0.1 ppm) respectively. An aliquot of the medium was used to determine the acetylcholine esterase activity in comparison to a negative control. The principle of measuring acetylcholine esterase as readout for anthelmintic activity was described in Rapson et al (1986) and Rapson et al (1987).
Based on the evaluation of a wide concentration range, concentration-response curves as well as EC50-values were calculated.

[2] = system: Dirofilaria immitis third-stage larvae; experiment: In Vitro Assay 4: Dirofilaria immitis (DIROIM L4); details: 72 h, read-out: EC50 (reduction of motility)
D. immitis Slo-1 = D. immitis Slo-1 (Dirofilaria immitis, UniProt I0DFK5); experiment: In Vitro Assay 2: D. immitis Slo-1 recombinant CHO cell line, membrane potential; type: cell-based; details: EC50, CHO cells expressing D. immitis Slo-1, voltage sensitive dye, FLIPR Tetra, 70 mM KCl
[3] = system: Dirofilaria immitis microfilariae; experiment: In Vitro Assay 3: Dirofilaria immitis microfilariae (DIROIM L1); details: 72 h, read-out: EC50 (reduction of motility)

D. immitis Slo-1, sequence (I0DFK5 1-1119): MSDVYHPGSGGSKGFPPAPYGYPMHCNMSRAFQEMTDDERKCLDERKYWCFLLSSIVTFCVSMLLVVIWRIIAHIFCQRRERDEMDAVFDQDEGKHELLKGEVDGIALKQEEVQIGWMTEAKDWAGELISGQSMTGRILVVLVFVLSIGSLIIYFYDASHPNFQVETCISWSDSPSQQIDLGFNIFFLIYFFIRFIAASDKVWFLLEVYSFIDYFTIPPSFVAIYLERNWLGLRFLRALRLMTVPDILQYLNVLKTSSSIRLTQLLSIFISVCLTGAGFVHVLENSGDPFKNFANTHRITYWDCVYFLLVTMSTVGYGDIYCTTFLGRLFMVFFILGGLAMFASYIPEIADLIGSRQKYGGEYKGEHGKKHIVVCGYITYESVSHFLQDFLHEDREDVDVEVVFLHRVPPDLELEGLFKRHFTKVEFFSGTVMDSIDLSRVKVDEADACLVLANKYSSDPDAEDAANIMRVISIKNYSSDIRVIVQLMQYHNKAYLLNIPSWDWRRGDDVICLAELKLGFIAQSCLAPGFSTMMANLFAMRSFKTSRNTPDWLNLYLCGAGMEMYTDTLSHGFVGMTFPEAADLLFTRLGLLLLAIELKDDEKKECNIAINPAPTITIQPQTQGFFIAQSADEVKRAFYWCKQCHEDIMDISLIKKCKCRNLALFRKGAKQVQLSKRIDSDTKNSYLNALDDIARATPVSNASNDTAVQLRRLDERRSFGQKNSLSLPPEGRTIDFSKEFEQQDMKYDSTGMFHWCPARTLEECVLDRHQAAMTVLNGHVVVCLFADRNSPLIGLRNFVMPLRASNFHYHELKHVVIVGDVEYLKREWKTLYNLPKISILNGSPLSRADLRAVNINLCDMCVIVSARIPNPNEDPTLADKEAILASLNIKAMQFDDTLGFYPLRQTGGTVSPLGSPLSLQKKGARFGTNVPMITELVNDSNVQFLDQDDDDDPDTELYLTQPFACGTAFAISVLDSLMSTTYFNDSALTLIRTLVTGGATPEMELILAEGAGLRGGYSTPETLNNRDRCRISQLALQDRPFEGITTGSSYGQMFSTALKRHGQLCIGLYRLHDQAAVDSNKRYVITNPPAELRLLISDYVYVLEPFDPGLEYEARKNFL

Compound	EC50 [1] [µg/mL]	EC50 [2] [µg/mL]	EC50 (D. immitis Slo-1)	EC50 [3] [µg/mL]
O=C(NN1CCOc2ccccc21)c1cnc2c(-c3cc(F)cc(F)c3F)c(F)ccc2c1N1C[C@@H](F)[C@@H](F)C1 (single isomer, unassigned) [Example 5.89, 4-(3,4-difluoropyrrolidin-1-yl)-N-(2,3-dihydro-1,4-benzoxazin-4-yl)-7-fluoro-8-(2,3,5-trifluorophenyl)quinoline-3-carboxamide]	< 0.1	< 0.1	< 100 nM	
N#Cc1c(Cl)cc(C(F)(F)F)cc1-c1cccc2c(N3CCOCC3)c(C(=O)NN3CCOc4ccccc43)cnc12 [Example 5.76, 8-[3-chloro-2-cyano-5-(trifluoromethyl)phenyl]-N-(2,3-dihydro-1,4-benzoxazin-4-yl)-4-morpholino-quinoline-3-carboxamide]			100 to 1000 nM	
Nc1c(Cl)cc(C(F)(F)F)cc1-c1cccc2c(N3CCOCC3)c(C(=O)NN3CCOc4ccccc43)cnc12 [Example 5.77, 8-[2-amino-3-chloro-5-(trifluoromethyl)phenyl]-N-(2,3-dihydro-1,4-benzoxazin-4-yl)-4-morpholino-quinoline-3-carboxamide]			< 100 nM and 100 to 1000 nM	
O=C(NN1CCOc2ccccc21)c1cnc2c(-c3cc(F)cc(F)c3F)c(F)ccc2c1N1CC(F)C1 [Example 5.78, N-(2,3-dihydro-1,4-benzoxazin-4-yl)-7-fluoro-4-(3-fluoroazetidin-1-yl)-8-(2,3,5-trifluorophenyl)quinoline-3-carboxamide]			< 100 nM	
O=C(NN1CCOc2ccccc21)c1cnc2c(-c3cc(Cl)cc(F)c3F)c(F)ccc2c1N1CC(F)C1 [Example 5.79, 8-(5-chloro-2,3-difluoro-phenyl)-N-(2,3-dihydro-1,4-benzoxazin-4-yl)-7-fluoro-4-(3-fluoroazetidin-1-yl)quinoline-3-carboxamide]	< 0.1		100 to 1000 nM	
O=C(NN1CCOc2ccccc21)c1cnc2c(-c3cc(C(F)(F)F)cc(F)c3Br)cccc2c1N1CCOCC1 [Example 5.80, 8-[2-bromo-3-fluoro-5-(trifluoromethyl)phenyl]-N-(2,3-dihydro-1,4-benzoxazin-4-yl)-4-morpholino-quinoline-3-carboxamide]	< 0.1		< 100 nM	
N#Cc1c(F)cc(C(F)(F)F)cc1-c1cccc2c(N3CCOCC3)c(C(=O)NN3CCOc4ccccc43)cnc12 [Example 5.81, 8-[2-cyano-3-fluoro-5-(trifluoromethyl)phenyl]-N-(2,3-dihydro-1,4-benzoxazin-4-yl)-4-morpholino-quinoline-3-carboxamide]			100 to 1000 nM	
O=C1CC(c2c(C(=O)NN3CCOc4ccccc43)cnc3c(-c4cc(F)cc(F)c4F)c(F)ccc23)C1 [Example 5.82, N-(2,3-dihydro-1,4-benzoxazin-4-yl)-7-fluoro-4-(3-oxocyclobutyl)-8-(2,3,5-trifluorophenyl)quinoline-3-carboxamide]	< 0.1	< 0.1	< 100 nM	< 0.1
O=C(NN1CCOc2ccc(F)cc21)c1cnc2c(-c3cc(F)cc(F)c3F)c(F)ccc2c1N1CCOCC1 [Example 5.83, 7-fluoro-N-(6-fluoro-2,3-dihydro-1,4-benzoxazin-4-yl)-4-morpholino-8-(2,3,5-trifluorophenyl)quinoline-3-carboxamide]	< 0.1	< 0.1	< 100 nM	< 0.1
COC1CN(c2c(C(=O)NN3CCOc4ccccc43)cnc3c(-c4cc(F)cc(F)c4F)c(F)ccc23)C1 [Example 5.84, N-(2,3-dihydro-1,4-benzoxazin-4-yl)-7-fluoro-4-(3-methoxyazetidin-1-yl)-8-(2,3,5-trifluorophenyl)quinoline-3-carboxamide]			100 to 1000 nM	
O=C(NN1CCOc2ccccc21)c1cnc2c(-c3cc(F)cc(F)c3F)c(F)ccc2c1C1CSC1 [Example 5.85, N-(2,3-dihydro-1,4-benzoxazin-4-yl)-7-fluoro-4-(thietan-3-yl)-8-(2,3,5-trifluorophenyl)quinoline-3-carboxamide]	< 0.1		< 100 nM	
O=C(NN1CCOc2ccccc21)c1cnc2c(-c3cc(F)cc(F)c3F)c(F)ccc2c1C1CS(=O)(=O)C1 [Example 5.86, N-(2,3-dihydro-1,4-benzoxazin-4-yl)-4-(1,1-dioxothietan-3-yl)-7-fluoro-8-(2,3,5-trifluorophenyl)quinoline-3-carboxamide]			100 to 1000 nM	
CN(c1c(C(=O)NN2CCOc3ccccc32)cnc2c(-c3cc(F)cc(F)c3F)c(F)ccc12)C1CC(F)C1 (stereo not shown) [Example 5.87, N-(2,3-dihydro-1,4-benzoxazin-4-yl)-7-fluoro-4-[(3-fluorocyclobutyl)-methyl-amino]-8-(2,3,5-trifluorophenyl)quinoline-3-carboxamide]	< 0.1			
O=C(NN1CCOc2ccccc21)c1cnc2c(-c3cc(F)cc(F)c3F)c(F)ccc2c1N1C[C@@H](F)[C@H](F)C1 [Example 5.92, 4-[(3R,4R)-3,4-difluoropyrrolidin-1-yl]-N-(2,3-dihydro-1,4-benzoxazin-4-yl)-7-fluoro-8-(2,3,5-trifluorophenyl)quinoline-3-carboxamide]	< 0.1	< 0.1		
O=C(NN1CCOc2ccccc21)c1cnc2c(-c3cc(C(F)(F)F)cc(F)c3F)c(F)ccc2c1N1CCOCC1 [Example 5.94, 8-(2,3-difluoro-5-(trifluoromethyl)phenyl)-N-(2,3-dihydro-4H-benzo[b][1,4]oxazin-4-yl)-7-fluoro-4-morpholinoquinoline-3-carboxamide]			< 100 nM	
O=C(NN1CCOc2ccccc21)c1cnc2c(-c3cc(F)cc(F)c3F)c(F)ccc2c1C1CC(F)(F)C1 [Example 5.95, 4-(3,3-difluorocyclobutyl)-N-(2,3-dihydro-4H-benzo[b][1,4]oxazin-4-yl)-7-fluoro-8-(2,3,5-trifluorophenyl)quinoline-3-carboxamide]			< 100 nM	
O=C(NN1CCOc2ccccc21)c1cnc2c(-c3cc(C(F)(F)F)cc(F)c3F)c(F)ccc2c1N1CC(F)C1 [Example 5.96, 8-(2,3-difluoro-5-(trifluoromethyl)phenyl)-N-(2,3-dihydro-4H-benzo[b][1,4]oxazin-4-yl)-7-fluoro-4-(3-fluoroazetidin-1-yl)quinoline-3-carboxamide]			100 to 1000 nM	
O=C(NN1CCOc2ccc(F)cc21)c1cnc2c(-c3cc(F)cc(F)c3F)c(F)ccc2c1C1CCOC1 (stereo not shown) [Example 5.97, 7-fluoro-N-(6-fluoro-2,3-dihydro-4H-benzo[b][1,4]oxazin-4-yl)-4-(tetrahydrofuran-3-yl)-8-(2,3,5-trifluorophenyl)quinoline-3-carboxamide]			< 100 nM	
O=C(NN1CCOc2ccc(F)cc21)c1cnc2c(-c3cc(F)cc(F)c3F)c(F)ccc2c1N1CC(F)C1 [Example 5.98, 7-fluoro-N-(6-fluoro-2,3-dihydro-4H-benzo[b][1,4]oxazin-4-yl)-4-(3-fluoroazetidin-1-yl)-8-(2,3,5-trifluorophenyl)quinoline-3-carboxamide]			100 to 1000 nM	
C=C(C)c1c(C(=O)NN2CCOc3ccc(F)cc32)cnc2c(-c3cc(F)cc(F)c3F)c(F)ccc12 [Example 5.99, 7-fluoro-N-(6-fluoro-2,3-dihydro-4H-benzo[b][1,4]oxazin-4-yl)-4-(prop-1-en-2-yl)-8-(2,3,5-trifluorophenyl)quinoline-3-carboxamide]			100 to 1000 nM	
O=C(NN1CCOc2ccccc21)c1cnc2c(-c3cc(F)cc(F)c3F)c(F)ccc2c1C1CC(F)C1 (stereo not shown) [Example 5.101, N-(2,3-dihydro-4H-benzo[b][1,4]oxazin-4-yl)-7-fluoro-4-(3-fluorocyclobutyl)-8-(2,3,5-trifluorophenyl)quinoline-3-carboxamide]			< 100 nM	
O=C(NN1CCOc2ccccc21)c1cnc2c(-c3cc(F)cc(S(F)(F)(F)(F)F)c3)c(F)ccc2c1C1CCOC1 (stereo not shown) [Example 5.102, N-(2,3-dihydro-4H-benzo[b][1,4]oxazin-4-yl)-7-fluoro-8-(3-fluoro-5-(pentafluoro-sulfanyl)phenyl)-4-(tetrahydrofuran-3-yl)quinoline-3-carboxamide]			< 100 nM	
O=C(NN1CCOc2ccccc21)c1cnc2c(-c3cc(F)cc(F)c3F)c(F)c(F)cc2c1N1CCOCC1 [Example 5.105, N-(2,3-dihydro-4H-benzo[b][1,4]oxazin-4-yl)-6,7-difluoro-4-morpholino-8-(2,3,5-trifluorophenyl)quinoline-3-carboxamide]			< 100 nM	
O=C(NN1CCOc2ccc(F)cc21)c1cnc2c(-c3cc(F)cc(F)c3F)c(F)ccc2c1C1CS(=O)(=O)C1 [Example 5.106, 4-(1,1-dioxidothietan-3-yl)-7-fluoro-N-(6-fluoro-2,3-dihydro-4H-benzo[b][1,4]oxazin-4-yl)-8-(2,3,5-trifluorophenyl)quinoline-3-carboxamide]	< 0.1		100 to 1000 nM	
O=C(NN1CCOc2ccccc21)c1cnc2c(-c3cc(C(F)(F)F)cc(F)c3F)c(F)ccc2c1C1CS(=O)(=O)C1 [Example 5.107, 8-(2,3-difluoro-5-(trifluoromethyl)phenyl)-N-(2,3-dihydro-4H-benzo[b][1,4]oxazin-4-yl)-4-(1,1-dioxidothietan-3-yl)-7-fluoroquinoline-3-carboxamide]	< 0.1		100 to 1000 nM	
O=C(NN1C(=O)COc2ccccc21)c1cnc2c(-c3cc(F)cc(F)c3F)cccc2c1N1CCOCC1 [Example 5.109, 4-morpholino-N-(3-oxo-2,3-dihydro-4H-benzo[b][1,4]oxazin-4-yl)-8-(2,3,5-trifluorophenyl)quinoline-3-carboxamide]			100 to 1000 nM	
